The test system of test [1] is Radical scavenging activity. In words: Antioxidant activity assessed as DPPH radical scavenging activity at 100 ug/ml after 30 mins by spectroscopic analysis. It counts as functional. (In general: Loss of DPPH colour is used to gauge radical scavenging.)
Test [2] deals with Radical scavenging activity. Briefly: Antioxidant activity assessed as DPPH radical scavenging activity at 50 ug/ml after 30 mins by spectroscopic analysis. It counts as functional.
The subject of test [3] is MCF7. In words: Cytotoxicity against human MCF7 cells at 100 ug/ml after 72 hrs by SRB assay. Type of test: functional. For orientation: In SRB staining, fixed cells bind dye roughly in proportion to their protein.
Test [4] has as its system HepG2. In words: Cytotoxicity against human HepG2 cells at 100 ug/ml after 72 hrs by SRB assay. Type of test: functional.
In test [5] the test system is Bacillus subtilis. In words: Bacteriostatic activity against Bacillus subtilis NRRL B-543 after 24 hrs by two-fold serial dilution technique. Type of test: functional. The conditions noted are these: NRRL B-543, 24 h.
Test [6] deals with Aspergillus niger. In words: Antifungal activity against Aspergillus niger after 48 hrs by two-fold serial dilution technique. It counts as functional.
In test [7] the test system is Bacillus subtilis. Briefly: Antibacterial activity against Bacillus subtilis NRRL B-543 after 24 hrs by agar diffusion method. Type of test: functional, organism-based.
The test system of test [8] is Escherichia coli. In words: Antibacterial activity against Escherichia coli NRRL B-210 after 24 hrs by agar diffusion method. It counts as functional, organism-based.
The subject of test [9] is Staphylococcus aureus. In words: Bacteriostatic activity against Staphylococcus aureus NRRL B-313 after 24 hrs by two-fold serial dilution technique. It counts as functional. To be noted: NRRL B-313, 24 h.
Test [10] has as its system Staphylococcus aureus. In words: Antibacterial activity against Staphylococcus aureus NRRL B-313 after 24 hrs by agar diffusion method. Type of test: functional, organism-based. Background: A growth-free zone around the sample is the usual read-out of agar diffusion tests.
Test [11] concerns Candida albicans. Briefly: Antifungal activity against Candida albicans NRRL Y-477 after 48 hrs by two-fold serial dilution technique. To be noted: NRRL Y-477, 48 h. Type of test: functional.
Test [12] has as its system Candida albicans. Briefly: Antifungal activity against Candida albicans NRRL Y-477 after 24 hrs by agar diffusion method. Type of test: functional, organism-based.
Test [13] concerns Aspergillus niger. In words: Antifungal activity against Aspergillus niger after 24 hrs by agar diffusion method. It counts as functional, organism-based.
In test [14] the test system is Escherichia coli. In words: Bacteriostatic activity against Escherichia coli NRRL B-210 after 24 hrs by two-fold serial dilution technique. It counts as functional. The conditions noted are these: NRRL B-210, 24 h.

Values after ≈ are worked out from the molar mass of the structure shown. Active and inactive are the calls of the source.

On to `Cc1ccc(-c2c3c(nc4nc(C)[nH]c(=O)c24)N(c2ccc(F)cc2)C2(CCCCC2)S3)cc1`, for which the Activity in test [1] is 92.5%; in test [2], 65%; in [3] it was 84%; in test [4] it was 78.85%.
As for `Cc1ccc(-c2c3c(oc(=O)c2C#N)N(c2ccc(F)cc2)C2(CCCCC2)S3)cc1`, the MIC amounted to 0.12 µg/mL (≈ 0.277 µM) in test [5], 0.3 µg/mL (≈ 0.694 µM) in test [6], 0.125 µg/mL (≈ 0.289 µM) in test [9] and 0.2 µg/mL (≈ 0.462 µM) in [11]. In addition, the outcome in test [7], in [10], in test [12] and in test [13] was Active. Besides, the outcome in test [8] was inactive.
Turning to `Cc1ccc(-c2c3c(nc4[nH]c(=S)nc(NN)c24)N(c2ccc(F)cc2)C2(CCCCC2)S3)cc1`, the Activity came to 78.2% in test [1], 50.2% in [2], 45.62% in test [3] and 15.65% in [4].
`CC(=O)Nc1nc2c(c(-c3ccc(C)cc3)c1C#N)SC1(CCCCC1)N2c1ccc(F)cc1`: the Activity in test [1] is 79.8%; in test [2] it was 49.9%; in test [3], 65%; in [4] it was 50.63%.
On to `N/N=C1\CSC2(CCCCC2)N1c1ccc(F)cc1`, for which the MIC in test [5] turned out to be 0.4 µg/mL (≈ 1.43 µM); in test [6], 0.45 µg/mL (≈ 1.61 µM); in [9] it was 0.4 µg/mL (≈ 1.43 µM); in test [11] it was 0.435 µg/mL (≈ 1.56 µM). The outcome in test [7], in test [10], in [12] and in [13] was Active. In [8], the result was inactive.
As for `O=C1/C(=N\Nc2ccc([N+](=O)[O-])cc2)SC2(CCCCC2)N1c1ccc(F)cc1`, the minimum inhibitory concentration (MIC) was determined as 0.175 µg/mL (≈ 0.422 µM) in [5], 0.3 µg/mL (≈ 0.724 µM) in [6], 0.175 µg/mL (≈ 0.422 µM) in test [9] and 0.45 µg/mL (≈ 1.09 µM) in test [11]. Further, the outcome in test [7], in test [10] and in test [12] was Active. Besides, the outcome in test [8] and in test [13] was inactive.
As to `O=C1CSC2(CCCCC2)N1c1ccc(F)cc1`, the minimum inhibitory concentration (MIC) in [5] turned out to be 0.125 µg/mL (≈ 0.471 µM); in test [6] it was 0.125 µg/mL (≈ 0.471 µM); in test [14] it was 0.125 µg/mL (≈ 0.471 µM); in [9], 0.15 µg/mL (≈ 0.565 µM); in test [11] it was 0.125 µg/mL (≈ 0.471 µM). For the same molecule, the outcome in test [7], in test [8], in test [10], in [12] and in test [13] was Active.
Regarding `NS(=O)(=O)c1ccc(/N=C2\CSC3(CCCCC3)N2c2ccc(F)cc2)cc1`, the result in test [7], in test [10] and in test [12] was Active. In addition, the outcome in [8] and in test [13] was inactive.
In the case of `O=C1/C(=C\c2ccc(Cl)cc2)SC2(CCCCC2)N1c1ccc(Br)cc1`, the result in test [7] and in [12] was Active. Moreover, the outcome in [8], in test [10] and in test [13] was inactive.
For `Cc1ccc(/C=C2/SC3(CCCCC3)N(c3ccc(F)cc3)C2=O)cc1`, the Activity in test [1] came out at 66.8%; in [2] it was 41.1%; in [3], 61.2%; in [4], 50.32%.
With `O=C1/C(=C\c2ccc(Cl)cc2)SC2(CCCCC2)N1c1ccc(F)cc1`, the outcome in test [7], in [10] and in [13] was inactive. The result in [8] and in test [12] was Active.
`Cc1ccc(-c2c(C#N)c(N)nc3c2SC2(CCCCC2)N3c2ccc(F)cc2)cc1`: the result in test [7], in test [8] and in test [13] was inactive. Further, the Activity in [1] is 85%; in test [2], 54.6%; in test [3], 55.84%; in [4], 45%. The result in test [10] and in test [12] was Active.
On to `Cc1ccc(-c2c3c(nc4[nH]c(=S)[nH]c(=S)c24)N(c2ccc(F)cc2)C2(CCCCC2)S3)cc1`, for which the Activity in [1] stood at 84.6%; in test [2], 60%; in test [3], 64.2%; in test [4] it was 50.21%.
On to `Fc1ccc(N2/C(=N/Nc3ccccc3)CSC23CCCCC3)cc1`, for which the outcome in test [7], in test [8] and in [13] was inactive. The result in [10] and in test [12] was Active.
In the case of `Cc1ccc(C2NOC3=C2SC2(CCCCC2)N3c2ccc(F)cc2)cc1` (centres undefined), the result in test [7], in [8], in test [10] and in [13] was inactive. In addition, the Activity was 60.5% in test [1], 41% in test [2], 56.62% in test [3] and 45.6% in test [4]. Moreover, the outcome in test [12] was Active.
With `O=C1CSC2(CCCCC2)N1c1ccc(Br)cc1`, the minimal inhibitory concentration (MIC) in [5] came out at 0.2 µg/mL (≈ 0.613 µM); in [14] it was 0.2 µg/mL (≈ 0.613 µM); in test [9] it was 0.3 µg/mL (≈ 0.92 µM); in test [11] it was 0.2 µg/mL (≈ 0.613 µM). Besides, the outcome in test [7], in test [8], in [10], in [12] and in test [13] was Active.

Usually MIC stands for the smallest concentration in the dilution series that meets the test's criterion for growth inhibition. Read a high MIC as weaker potency.
